pEC50, pIC50, pKd: −log10 of the molar value.
Assays:
P2X purinoceptor 1 [1] = target: T1, P2X purinoceptor 1 (Rattus norvegicus, UniProt P47824); test: The compound was evaluated for antagonist activity against P2X purinoceptor 1 (P2X1) like receptor from rat vas deferens; type: functional
T1 sequence (P47824 whole entry): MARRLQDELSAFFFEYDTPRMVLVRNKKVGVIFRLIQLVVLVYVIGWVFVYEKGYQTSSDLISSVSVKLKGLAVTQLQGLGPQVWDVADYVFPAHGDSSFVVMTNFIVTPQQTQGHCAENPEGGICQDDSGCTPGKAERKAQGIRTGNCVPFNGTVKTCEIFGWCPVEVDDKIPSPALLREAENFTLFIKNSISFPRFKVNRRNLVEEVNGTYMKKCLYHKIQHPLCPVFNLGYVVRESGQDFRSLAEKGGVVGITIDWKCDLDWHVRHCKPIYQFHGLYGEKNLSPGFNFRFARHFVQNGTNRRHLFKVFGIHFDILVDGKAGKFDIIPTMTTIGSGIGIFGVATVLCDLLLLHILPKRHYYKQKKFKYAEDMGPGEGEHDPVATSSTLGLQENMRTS

P2X purinoceptor 3 = target: T2, P2X purinoceptor 3 (Homo sapiens, UniProt P56373); test: Antagonist activity against recombinant human P2X purinoceptor 3 (P2X3 ); type: functional
T2 sequence (P56373 whole entry): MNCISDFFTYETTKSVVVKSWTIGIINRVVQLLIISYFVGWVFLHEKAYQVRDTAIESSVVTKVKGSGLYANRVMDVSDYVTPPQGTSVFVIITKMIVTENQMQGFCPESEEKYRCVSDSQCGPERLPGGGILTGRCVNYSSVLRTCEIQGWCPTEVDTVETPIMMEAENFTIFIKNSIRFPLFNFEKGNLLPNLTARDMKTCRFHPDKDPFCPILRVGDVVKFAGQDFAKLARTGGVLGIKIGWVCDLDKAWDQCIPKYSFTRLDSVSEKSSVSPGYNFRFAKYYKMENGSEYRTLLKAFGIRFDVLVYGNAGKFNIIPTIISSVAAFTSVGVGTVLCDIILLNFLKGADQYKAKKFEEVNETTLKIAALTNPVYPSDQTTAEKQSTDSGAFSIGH

P2X purinoceptor 4 [2] = target: T3, P2X purinoceptor 4 (Homo sapiens, UniProt Q99571); test: Antagonist activity against recombinant human P2X purinoceptor 4 (P2X4); type: functional
T3 sequence (Q99571 whole entry): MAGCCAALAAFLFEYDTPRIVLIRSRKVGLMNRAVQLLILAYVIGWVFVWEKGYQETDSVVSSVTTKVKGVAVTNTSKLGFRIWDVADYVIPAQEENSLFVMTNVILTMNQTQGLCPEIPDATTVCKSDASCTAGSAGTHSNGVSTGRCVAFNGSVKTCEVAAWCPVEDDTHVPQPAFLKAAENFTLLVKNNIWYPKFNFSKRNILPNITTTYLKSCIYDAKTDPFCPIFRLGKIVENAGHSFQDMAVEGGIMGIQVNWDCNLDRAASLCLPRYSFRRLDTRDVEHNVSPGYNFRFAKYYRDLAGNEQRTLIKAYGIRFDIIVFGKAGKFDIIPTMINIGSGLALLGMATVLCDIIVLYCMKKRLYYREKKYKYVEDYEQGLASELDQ

P2Y purinoceptor 11 = target: T4, P2Y purinoceptor 11 (Homo sapiens, UniProt Q96G91); test: Agonist activity against phospholipase C coupled human P2Y purinoceptor 11 (P2Y11); type: functional
T4 sequence (Q96G91 whole entry): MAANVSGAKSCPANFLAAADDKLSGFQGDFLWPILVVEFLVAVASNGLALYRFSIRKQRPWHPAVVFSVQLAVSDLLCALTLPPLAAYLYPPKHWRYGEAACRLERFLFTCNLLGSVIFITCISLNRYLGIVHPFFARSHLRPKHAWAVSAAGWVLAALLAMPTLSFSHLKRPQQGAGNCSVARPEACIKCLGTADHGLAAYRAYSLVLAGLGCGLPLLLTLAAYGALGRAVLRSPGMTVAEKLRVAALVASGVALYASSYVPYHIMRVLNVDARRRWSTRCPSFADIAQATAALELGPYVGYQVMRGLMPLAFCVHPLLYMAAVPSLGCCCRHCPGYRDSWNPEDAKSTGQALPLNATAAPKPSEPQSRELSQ

P2X purinoceptor 2 = target: T5, P2X purinoceptor 2 (Rattus norvegicus, UniProt P49653); test: Antagonist activity against recombinant rat receptor P2X purinoceptor 2 (P2X2) at 10 uM, expressed in Xenopus oocytes; type: functional, cell-based, Oocyte
T5 sequence (P49653 whole entry): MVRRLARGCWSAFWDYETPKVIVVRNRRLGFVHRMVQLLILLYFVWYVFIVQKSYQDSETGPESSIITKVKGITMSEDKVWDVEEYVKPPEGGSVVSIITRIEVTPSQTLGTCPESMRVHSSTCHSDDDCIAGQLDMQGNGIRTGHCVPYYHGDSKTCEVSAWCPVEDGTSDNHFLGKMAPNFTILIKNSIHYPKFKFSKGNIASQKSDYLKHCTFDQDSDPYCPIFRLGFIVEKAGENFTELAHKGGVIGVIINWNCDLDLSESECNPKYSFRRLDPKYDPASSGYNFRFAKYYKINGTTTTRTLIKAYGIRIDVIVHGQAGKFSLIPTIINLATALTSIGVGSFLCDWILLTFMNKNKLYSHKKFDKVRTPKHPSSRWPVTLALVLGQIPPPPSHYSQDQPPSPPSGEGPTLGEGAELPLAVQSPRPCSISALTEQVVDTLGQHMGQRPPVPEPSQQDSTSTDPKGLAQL

P2Y purinoceptor 12 = P2Y purinoceptor 12 (Rattus norvegicus, UniProt Q9EPX4); test: Antagonist activity against phospholipase C coupled rat P2Y purinoceptor 12 (P2Y12); type: functional
Chain of P2Y purinoceptor 12 (Q9EPX4 whole entry): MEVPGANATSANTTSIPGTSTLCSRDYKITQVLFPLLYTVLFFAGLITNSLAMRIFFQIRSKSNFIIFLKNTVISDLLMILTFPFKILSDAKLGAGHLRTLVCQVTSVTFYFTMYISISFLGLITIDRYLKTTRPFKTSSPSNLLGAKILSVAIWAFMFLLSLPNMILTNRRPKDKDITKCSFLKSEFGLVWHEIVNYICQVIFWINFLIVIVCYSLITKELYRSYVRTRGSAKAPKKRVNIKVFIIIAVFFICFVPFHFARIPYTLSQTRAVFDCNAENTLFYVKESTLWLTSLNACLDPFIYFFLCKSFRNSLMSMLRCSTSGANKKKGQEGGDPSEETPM

P2X purinoceptor 1 [3] = target: T6, P2X purinoceptor 1 (Homo sapiens, UniProt P51575); test: Antagonist activity against recombinant human P2X purinoceptor 1 (P2X1 ); type: functional
T6 sequence (P51575 whole entry): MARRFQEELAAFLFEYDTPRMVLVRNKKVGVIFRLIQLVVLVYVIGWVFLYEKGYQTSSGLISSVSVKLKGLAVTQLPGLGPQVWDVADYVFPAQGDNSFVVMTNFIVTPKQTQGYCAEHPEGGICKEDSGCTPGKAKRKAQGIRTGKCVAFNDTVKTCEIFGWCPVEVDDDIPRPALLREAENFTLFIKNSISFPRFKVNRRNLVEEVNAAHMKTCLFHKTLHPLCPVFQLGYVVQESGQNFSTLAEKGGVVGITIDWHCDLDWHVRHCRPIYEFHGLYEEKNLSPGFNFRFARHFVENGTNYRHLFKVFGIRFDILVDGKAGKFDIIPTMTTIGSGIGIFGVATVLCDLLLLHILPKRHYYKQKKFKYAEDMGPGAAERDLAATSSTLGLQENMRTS

P2X purinoceptor 1 [4] = target: T1, P2X purinoceptor 1; test: The compound was evaluated for antagonist activity against recombinant rat P2X purinoceptor 1 (P2X1); type: functional
P2Y purinoceptor 1 = P2Y purinoceptor 1 (Meleagris gallopavo, UniProt P49652); test: Evaluated for agonist activity against phospholipase C coupled P2Y purinoceptor 1 (P2Y1) of turkey erythrocytes; type: functional
Chain of P2Y purinoceptor 1 (P49652 whole entry): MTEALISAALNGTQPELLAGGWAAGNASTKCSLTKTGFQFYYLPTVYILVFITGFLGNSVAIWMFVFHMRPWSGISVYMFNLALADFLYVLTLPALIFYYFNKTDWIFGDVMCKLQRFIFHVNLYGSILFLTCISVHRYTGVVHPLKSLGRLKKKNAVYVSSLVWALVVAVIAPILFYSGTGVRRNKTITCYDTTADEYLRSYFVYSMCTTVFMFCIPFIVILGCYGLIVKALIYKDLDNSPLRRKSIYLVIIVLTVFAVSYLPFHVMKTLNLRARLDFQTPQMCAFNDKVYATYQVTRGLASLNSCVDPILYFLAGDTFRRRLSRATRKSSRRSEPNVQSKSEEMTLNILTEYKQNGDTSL

P2Y purinoceptor 6 = P2Y purinoceptor 6 (Homo sapiens, UniProt Q15077); test: The compound was evaluated for agonist activity against phospholipase C coupled recombinant human P2Y purinoceptor 6 (P2Y6); type: functional
Chain of P2Y purinoceptor 6 (Q15077 whole entry): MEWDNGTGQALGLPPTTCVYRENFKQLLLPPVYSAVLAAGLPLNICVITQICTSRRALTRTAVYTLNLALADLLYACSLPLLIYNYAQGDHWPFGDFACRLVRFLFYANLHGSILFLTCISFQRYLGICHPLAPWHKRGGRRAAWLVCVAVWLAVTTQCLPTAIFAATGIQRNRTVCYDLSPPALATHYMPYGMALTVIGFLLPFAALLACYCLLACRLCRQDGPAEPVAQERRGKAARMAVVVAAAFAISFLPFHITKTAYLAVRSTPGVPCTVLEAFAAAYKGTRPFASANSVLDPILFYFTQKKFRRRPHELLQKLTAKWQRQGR

P2Y purinoceptor 2 = P2Y purinoceptor 2 (Homo sapiens, UniProt P41231); test: Evaluated for agonist activity against phospholipase C coupled recombinant human P2Y purinoceptor 2 (P2Y2); type: functional
Chain of P2Y purinoceptor 2 (P41231 whole entry): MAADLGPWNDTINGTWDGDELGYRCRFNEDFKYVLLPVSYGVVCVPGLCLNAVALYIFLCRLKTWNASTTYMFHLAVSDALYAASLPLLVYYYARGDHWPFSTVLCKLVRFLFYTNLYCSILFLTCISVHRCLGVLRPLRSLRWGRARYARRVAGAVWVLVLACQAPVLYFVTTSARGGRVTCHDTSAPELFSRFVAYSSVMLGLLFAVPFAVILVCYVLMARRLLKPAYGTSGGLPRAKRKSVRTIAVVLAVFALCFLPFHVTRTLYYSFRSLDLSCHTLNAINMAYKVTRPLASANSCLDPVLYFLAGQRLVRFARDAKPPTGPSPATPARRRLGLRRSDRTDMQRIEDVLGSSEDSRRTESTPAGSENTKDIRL

P2Y purinoceptor 4 = P2Y purinoceptor 4 (Homo sapiens, UniProt P51582); test: The compound was evaluated for antagonist activity against phospholipase C coupled recombinant human P2Y purinoceptor 4 (P2Y4); type: functional
Chain of P2Y purinoceptor 4 (P51582 whole entry): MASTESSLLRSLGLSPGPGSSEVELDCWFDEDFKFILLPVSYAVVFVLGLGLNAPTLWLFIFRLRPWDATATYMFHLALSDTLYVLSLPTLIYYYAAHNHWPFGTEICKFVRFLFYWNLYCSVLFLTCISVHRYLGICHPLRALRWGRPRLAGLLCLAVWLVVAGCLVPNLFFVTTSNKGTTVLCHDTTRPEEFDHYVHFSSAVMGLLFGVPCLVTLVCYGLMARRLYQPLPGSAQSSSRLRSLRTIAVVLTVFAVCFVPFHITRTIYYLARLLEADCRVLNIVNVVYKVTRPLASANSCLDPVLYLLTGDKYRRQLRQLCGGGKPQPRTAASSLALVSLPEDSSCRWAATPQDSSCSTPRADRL

P2X purinoceptor 4 [5] = target: T7, P2X purinoceptor 4 (Rattus norvegicus, UniProt P51577); test: Antagonist activity against recombinant rat P2X purinoceptor 4 (P2X4) at 3 uM, expressed in Xenopus oocytes; type: functional, cell-based, Oocyte
T7 sequence (P51577 whole entry): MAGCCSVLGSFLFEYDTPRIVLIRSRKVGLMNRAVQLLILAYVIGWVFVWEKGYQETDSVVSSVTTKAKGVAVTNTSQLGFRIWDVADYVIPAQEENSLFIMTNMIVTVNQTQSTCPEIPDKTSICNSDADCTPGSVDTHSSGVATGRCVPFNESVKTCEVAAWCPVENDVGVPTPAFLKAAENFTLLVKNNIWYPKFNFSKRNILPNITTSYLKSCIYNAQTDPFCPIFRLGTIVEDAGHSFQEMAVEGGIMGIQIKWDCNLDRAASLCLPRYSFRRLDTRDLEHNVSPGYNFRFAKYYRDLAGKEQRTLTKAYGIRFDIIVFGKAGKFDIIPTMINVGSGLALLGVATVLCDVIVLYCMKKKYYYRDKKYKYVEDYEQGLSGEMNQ

P2X purinoceptor 1 [6] = target: T1, P2X purinoceptor 1; test: The compound was evaluated for antagonist activity against recombinant rat P2X purinoceptor 1 (P2X1) at 1 uM, expressed in Xenopus oocytes; type: functional, cell-based, Oocyte

## Nc1c(S(=O)(=O)O)cc(Nc2ccc(Nc3nc(Cl)nc(Cl)n3)c(S(=O)(=O)O)c2)c2c1C(=O)c1ccccc1C2=O
P2X purinoceptor 1 [1]
  pIC50: 5.06

## Nc1ncnc2c1ncn2[C@@H]1O[C@H](COP(=O)(O)OP(=O)(O)S)[C@@H](O)[C@H]1O (stereo not given in full)
P2X purinoceptor 3
  pEC50: 5.06
P2X purinoceptor 4 [2]
  pEC50: 4.60
P2Y purinoceptor 11
  pEC50: 4.52
P2X purinoceptor 2
  pEC50: 4.00
P2Y purinoceptor 12
  pEC50: 7.09
P2X purinoceptor 1 [3]
  pEC50: 5.60

## O=c1[nH]cnc2c1ncn2[C@@H]1O[C@H](COP(=O)(O)OP(=O)(O)OP(=O)(O)OP(=O)(O)OP(=O)(O)OC[C@H]2O[C@@H](n3cnc4c(=O)[nH]cnc43)[C@H](O)[C@@H]2O)[C@@H](O)[C@H]1O
P2X purinoceptor 1 [4]
  pEC50: 8.82

## CNc1nc(Cl)nc2c1ncn2[C@H]1C[C@@H](OP(=O)(O)O)[C@]2(COP(=O)(O)O)C[C@H]12
P2Y purinoceptor 1
  pEC50: 7.28
P2Y purinoceptor 6
  pEC50: < 4.00
P2Y purinoceptor 2
  pEC50: < 4.00
P2Y purinoceptor 4
  pEC50: < 4.00
P2Y purinoceptor 11
  pEC50: < 4.00
P2Y purinoceptor 12
  pEC50: < 4.00

## Nc1ncnc2c1ncn2[C@@H]1CO[C@H](COP(=O)(O)O)[C@@H](OP(=O)(O)O)C1
P2Y purinoceptor 1
  pEC50: 8.52

## Nc1ccc(CCSc2nc(N)c3ncn([C@@H]4O[C@H](COP(=O)(O)OP(=O)(O)OP(=O)(O)O)[C@@H](O)[C@H]4O)c3n2)cc1
P2Y purinoceptor 1
  pEC50: 8.82
P2X purinoceptor 4 [5]
  pEC50: 4.82
P2X purinoceptor 1 [6]
  pEC50: 7.01

## Cc1cc(C)c(Nc2cc(S(=O)(=O)O)c(N)c3c2C(=O)c2ccccc2C3=O)c(C)c1 [ACID BLUE 129]
P2X purinoceptor 1 [1]
  pKd: < 4.00

## Nc1ncnc2c1ncn2[C@H]1CC(OP(=O)(O)O)C2(COP(=O)(O)O)CC12 (stereo not given in full)
P2Y purinoceptor 1
  pEC50: 6.81

Reference: ChEMBL document CHEMBL1135773, “Purine and pyrimidine (P2) receptors as drug targets” (J Med Chem, 2002)
